Legend:
Assay in all cases: relative viability (nuclei count vs DMSO), 5 days (fraction); higher = more cells survive
Olaparib + Palbociclib = compound: O=C(c1cc(Cc2n[nH]c(=O)c3ccccc23)ccc1F)N1CCN(C(=O)C2CC2)CC1 [Olaparib] + CC(=O)c1c(C)c2cnc(Nc3ccc(N4CCNCC4)cn3)nc2n(C2CCCC2)c1=O [Palbociclib] (partner 0.5 µM)
Outline: (§1)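 Nuclei were stained with Hoechst during a one-step fixation (final 0.05% Triton X-100, 1% formaldehyde, 1 ug/ml Hoechst) carried out 5 days after dosing, then counted on 4× images. The cells, lung cancer lines in 1536-well plates, had been dosed by pin tool the day after seeding with one drug alone or a fixed anchor-drug dose plus five library-drug doses (not always all listed) in √10 steps. Relative viability is the nuclei count in treated wells divided by that in vehicle wells, and each value is the median of duplicate plates.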

Olaparib + Trametinib = compound: O=C(c1cc(Cc2n[nH]c(=O)c3ccccc23)ccc1F)N1CCN(C(=O)C2CC2)CC1 [Olaparib] + CC(=O)Nc1cccc(-n2c(=O)n(C3CC3)c(=O)c3c(Nc4ccc(I)cc4F)n(C)c(=O)c(C)c32)c1 [Trametinib] (partner 0.02 µM)
Outline: as §1

Crizotinib + Alpelisib = compound: C[C@@H](Oc1cc(-c2cnn(C3CCNCC3)c2)cnc1N)c1c(Cl)ccc(F)c1Cl [Crizotinib] + Cc1nc(NC(=O)N2CCC[C@H]2C(N)=O)sc1-c1ccnc(C(C)(C)C(F)(F)F)c1 [Alpelisib] (partner 2 µM)
Outline: as §1

Crizotinib + Trametinib = compound: C[C@@H](Oc1cc(-c2cnn(C3CCNCC3)c2)cnc1N)c1c(Cl)ccc(F)c1Cl [Crizotinib] + CC(=O)Nc1cccc(-n2c(=O)n(C3CC3)c(=O)c3c(Nc4ccc(I)cc4F)n(C)c(=O)c(C)c32)c1 [Trametinib] (partner 0.02 µM)
Outline: as §1

## RERF-LC-KJ
Olaparib + Palbociclib; first compound 0.08 µM
  relative viability: 1.17
Olaparib + Palbociclib; first compound 0.253 µM
  relative viability: 0.964
Olaparib + Palbociclib; first compound 2.53 µM
  relative viability: 1.08
Olaparib + Palbociclib; first compound 8 µM
  relative viability: 1.02
Olaparib + Trametinib; first compound 0.08 µM
  relative viability: 0.98
Olaparib + Trametinib; first compound 0.253 µM
  relative viability: 0.825
Olaparib + Trametinib; first compound 2.53 µM
  relative viability: 0.949
Olaparib + Trametinib; first compound 8 µM
  relative viability: 0.878
Crizotinib + Alpelisib; first compound 0.01 µM
  relative viability: 0.702
Crizotinib + Alpelisib; first compound 0.03162 µM
  relative viability: 0.847
Crizotinib + Alpelisib; first compound 0.1 µM
  relative viability: 0.82
Crizotinib + Alpelisib; first compound 0.3162 µM
  relative viability: 0.816
Crizotinib + Trametinib; first compound 0.01 µM
  relative viability: 0.955
Crizotinib + Trametinib; first compound 0.03162 µM
  relative viability: 0.885
Crizotinib + Trametinib; first compound 0.1 µM
  relative viability: 0.831
Crizotinib + Trametinib; first compound 0.3162 µM
  relative viability: 0.827
Crizotinib + Trametinib; first compound 1 µM
  relative viability: 0.905

## SK-LU-1
Olaparib + Palbociclib; first compound 0.08 µM
  relative viability: 0.452
Olaparib + Palbociclib; first compound 0.253 µM
  relative viability: 0.346
Olaparib + Palbociclib; first compound 2.53 µM
  relative viability: 0.419
Olaparib + Palbociclib; first compound 8 µM
  relative viability: 0.343
Olaparib + Trametinib; first compound 0.08 µM
  relative viability: 0.515
Olaparib + Trametinib; first compound 0.253 µM
  relative viability: 0.402
Olaparib + Trametinib; first compound 2.53 µM
  relative viability: 0.496
Olaparib + Trametinib; first compound 8 µM
  relative viability: 0.417
Crizotinib + Alpelisib; first compound 0.01 µM
  relative viability: 0.989
Crizotinib + Alpelisib; first compound 0.03162 µM
  relative viability: 1.04
Crizotinib + Alpelisib; first compound 0.1 µM
  relative viability: 1.11
Crizotinib + Alpelisib; first compound 0.3162 µM
  relative viability: 1.17
Crizotinib + Trametinib; first compound 0.01 µM
  relative viability: 0.455
Crizotinib + Trametinib; first compound 0.03162 µM
  relative viability: 0.396
Crizotinib + Trametinib; first compound 0.1 µM
  relative viability: 0.539
Crizotinib + Trametinib; first compound 0.3162 µM
  relative viability: 0.457
Crizotinib + Trametinib; first compound 1 µM
  relative viability: 0.512

## SK-MES-1
Olaparib + Palbociclib; first compound 0.08 µM
  relative viability: 0.376
Olaparib + Palbociclib; first compound 0.253 µM
  relative viability: 0.278
Olaparib + Palbociclib; first compound 2.53 µM
  relative viability: 0.325
Olaparib + Palbociclib; first compound 8 µM
  relative viability: 0.254
Olaparib + Trametinib; first compound 0.08 µM
  relative viability: 0.577
Olaparib + Trametinib; first compound 0.253 µM
  relative viability: 0.539
Olaparib + Trametinib; first compound 2.53 µM
  relative viability: 0.608
Olaparib + Trametinib; first compound 8 µM
  relative viability: 0.616
Crizotinib + Alpelisib; first compound 0.01 µM
  relative viability: 0.775
Crizotinib + Alpelisib; first compound 0.03162 µM
  relative viability: 0.929
Crizotinib + Alpelisib; first compound 0.1 µM
  relative viability: 0.79
Crizotinib + Alpelisib; first compound 0.3162 µM
  relative viability: 0.803
Crizotinib + Trametinib; first compound 0.01 µM
  relative viability: 0.511
Crizotinib + Trametinib; first compound 0.03162 µM
  relative viability: 0.561
Crizotinib + Trametinib; first compound 0.1 µM
  relative viability: 0.54
Crizotinib + Trametinib; first compound 0.3162 µM
  relative viability: 0.621
Crizotinib + Trametinib; first compound 1 µM
  relative viability: 0.57

## SW 1573
Olaparib + Palbociclib; first compound 0.08 µM
  relative viability: 0.468
Olaparib + Palbociclib; first compound 0.253 µM
  relative viability: 0.377
Olaparib + Palbociclib; first compound 2.53 µM
  relative viability: 0.338
Olaparib + Palbociclib; first compound 8 µM
  relative viability: 0.252
Olaparib + Trametinib; first compound 0.08 µM
  relative viability: 0.591
Olaparib + Trametinib; first compound 0.253 µM
  relative viability: 0.565
Olaparib + Trametinib; first compound 2.53 µM
  relative viability: 0.515
Olaparib + Trametinib; first compound 8 µM
  relative viability: 0.473
Crizotinib + Alpelisib; first compound 0.01 µM
  relative viability: 0.663
Crizotinib + Alpelisib; first compound 0.03162 µM
  relative viability: 0.896
Crizotinib + Alpelisib; first compound 0.1 µM
  relative viability: 0.638
Crizotinib + Alpelisib; first compound 0.3162 µM
  relative viability: 0.732
Crizotinib + Alpelisib; first compound 1 µM
  relative viability: 0.779
Crizotinib + Trametinib; first compound 0.01 µM
  relative viability: 0.531
Crizotinib + Trametinib; first compound 0.03162 µM
  relative viability: 0.473
Crizotinib + Trametinib; first compound 0.1 µM
  relative viability: 0.594
Crizotinib + Trametinib; first compound 0.3162 µM
  relative viability: 0.567
Crizotinib + Trametinib; first compound 1 µM
  relative viability: 0.615

## UMC-11
Olaparib + Palbociclib; first compound 0.08 µM
  relative viability: 0.286
Olaparib + Palbociclib; first compound 2.53 µM
  relative viability: 0.317
Olaparib + Palbociclib; first compound 8 µM
  relative viability: 0.31
Olaparib + Trametinib; first compound 0.08 µM
  relative viability: 0.651
Olaparib + Trametinib; first compound 0.253 µM
  relative viability: 0.644
Olaparib + Trametinib; first compound 2.53 µM
  relative viability: 0.59
Olaparib + Trametinib; first compound 8 µM
  relative viability: 0.376
Crizotinib + Alpelisib; first compound 0.01 µM
  relative viability: 0.961
Crizotinib + Alpelisib; first compound 0.03162 µM
  relative viability: 0.921
Crizotinib + Alpelisib; first compound 0.1 µM
  relative viability: 0.968
Crizotinib + Alpelisib; first compound 0.3162 µM
  relative viability: 0.956
Crizotinib + Alpelisib; first compound 1 µM
  relative viability: 0.974
Crizotinib + Trametinib; first compound 0.01 µM
  relative viability: 0.7
Crizotinib + Trametinib; first compound 0.03162 µM
  relative viability: 0.751
Crizotinib + Trametinib; first compound 0.1 µM
  relative viability: 0.683
Crizotinib + Trametinib; first compound 0.3162 µM
  relative viability: 0.227
Crizotinib + Trametinib; first compound 1 µM
  relative viability: 0.985

From the supplement of paper PMC10307832
